#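 All cell lines were grown in 96-well plates and treated with compound for 48 hours. TGI is the concentration that stops growth completely.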
# What was measured:
# Assay in all cases: inhibition of tumour cell growth, NCI panel, 48 h
# UACC-62 melanoma = system: UACC-62 melanoma
# NCI-H522 lung = system: NCI-H522 lung
# HL-60(TB) leukemia = system: HL-60(TB) leukemia
# SW-620 colon = system: SW-620 colon
# K-562 leukemia = system: K-562 leukemia
# OVCAR-5 ovarian = system: OVCAR-5 ovarian
# IGROV1 ovarian = system: IGROV1 ovarian
# KM20L2 colon = system: KM20L2 colon
# SK-OV-3 ovarian = system: SK-OV-3 ovarian
# NCI-H460 lung = system: NCI-H460 lung
# SNB-19 CNS = system: SNB-19 CNS
# SF-268 CNS = system: SF-268 CNS
# HCC-2998 colon = system: HCC-2998 colon
# SK-MEL-2 melanoma = system: SK-MEL-2 melanoma
# TK-10 renal = system: TK-10 renal
# DMS 273 small cell lung = system: DMS 273 small cell lung
# OVCAR-4 ovarian = system: OVCAR-4 ovarian
# SN12C renal = system: SN12C renal
# U251 CNS = system: U251 CNS
# M19-MEL melanoma = system: M19-MEL melanoma
# HCT-116 colon = system: HCT-116 colon
# LXFL 529 NSCLC = system: LXFL 529 NSCLC
# OVCAR-3 ovarian = system: OVCAR-3 ovarian
# KM12 colon = system: KM12 colon
# MOLT-4 leukemia = system: MOLT-4 leukemia
# UO-31 renal = system: UO-31 renal
# SF-295 CNS = system: SF-295 CNS
# SF-539 CNS = system: SF-539 CNS
# HCT-15 colon = system: HCT-15 colon
# 786-0 renal = system: 786-0 renal
# COLO 205 colon = system: COLO 205 colon
# CCRF-CEM leukemia = system: CCRF-CEM leukemia
# RPMI-8226 leukemia = system: RPMI-8226 leukemia
# HOP-62 NSCLC = system: HOP-62 NSCLC
# EKVX NSCLC = system: EKVX NSCLC
# NCI-H23 lung = system: NCI-H23 lung
# DMS 114 small cell lung = system: DMS 114 small cell lung
# HT29 colon = system: HT29 colon
# LOX IMVI melanoma = system: LOX IMVI melanoma
# SK-MEL-28 melanoma = system: SK-MEL-28 melanoma
# SNB-78 CNS = system: SNB-78 CNS
# UACC-257 melanoma = system: UACC-257 melanoma
# A549 NSCLC = system: A549 NSCLC
# NCI-H226 lung = system: NCI-H226 lung
# OVCAR-8 ovarian = system: OVCAR-8 ovarian
# A498 renal = system: A498 renal
# M14 melanoma = system: M14 melanoma
# MALME-3M melanoma = system: MALME-3M melanoma
# ACHN renal = system: ACHN renal
# SK-MEL-5 melanoma = system: SK-MEL-5 melanoma
# SR leukemia = system: SR leukemia
# SNB-75 CNS = system: SNB-75 CNS
# DLD-1 colon = system: DLD-1 colon
# RXF 393 renal = system: RXF 393 renal
# CAKI-1 renal = system: CAKI-1 renal
# HOP-92 NSCLC = system: HOP-92 NSCLC
# DU-145 prostate = system: DU-145 prostate
# HS 578T breast = system: HS 578T breast
# MDA-MB-435 = system: MDA-MB-435
# MDA-N = system: MDA-N
# PC-3 prostate = system: PC-3 prostate
# MCF7 breast = system: MCF7 breast
# NCI/ADR-RES ovarian = system: NCI/ADR-RES ovarian
# MDA-MB-231 breast = system: MDA-MB-231 breast
# T-47D breast = system: T-47D breast
# BT-549 breast = system: BT-549 breast
smiles,measurement,setting,value
N/N=C(/C(=O)Nc1cccc(Cl)c1)C(C(=O)c1ccc(O)cc1O)C1OC(=O)c2ccccc21 (stereo not given),TGI,UACC-62 melanoma,> 100 µM
same,TGI,NCI-H522 lung,> 100 µM
same,TGI,HL-60(TB) leukemia,> 100 µM
same,TGI,SW-620 colon,> 100 µM
same,TGI,K-562 leukemia,> 100 µM
same,TGI,OVCAR-5 ovarian,> 100 µM
same,TGI,IGROV1 ovarian,> 100 µM
same,TGI,KM20L2 colon,> 100 µM
same,TGI,SK-OV-3 ovarian,> 100 µM
same,TGI,NCI-H460 lung,> 100 µM
same,TGI,SNB-19 CNS,> 100 µM
same,TGI,SF-268 CNS,> 100 µM
same,TGI,HCC-2998 colon,> 100 µM
same,TGI,SK-MEL-2 melanoma,> 100 µM
same,TGI,TK-10 renal,> 100 µM
same,TGI,DMS 273 small cell lung,> 100 µM
same,TGI,OVCAR-4 ovarian,> 100 µM
same,TGI,SN12C renal,> 100 µM
same,TGI,U251 CNS,> 100 µM
same,TGI,M19-MEL melanoma,> 100 µM
same,TGI,HCT-116 colon,> 100 µM
same,TGI,LXFL 529 NSCLC,> 100 µM
same,TGI,OVCAR-3 ovarian,> 100 µM
same,TGI,KM12 colon,> 100 µM
same,TGI,MOLT-4 leukemia,> 100 µM
same,TGI,UO-31 renal,> 100 µM
same,TGI,SF-295 CNS,> 100 µM
same,TGI,SF-539 CNS,> 100 µM
same,TGI,HCT-15 colon,> 100 µM
same,TGI,786-0 renal,> 100 µM
same,TGI,COLO 205 colon,> 100 µM
same,TGI,CCRF-CEM leukemia,> 100 µM
same,TGI,RPMI-8226 leukemia,> 100 µM
same,TGI,HOP-62 NSCLC,> 100 µM
same,TGI,EKVX NSCLC,> 100 µM
same,TGI,NCI-H23 lung,> 100 µM
same,TGI,DMS 114 small cell lung,> 100 µM
same,TGI,HT29 colon,> 100 µM
same,TGI,LOX IMVI melanoma,> 100 µM
same,TGI,SK-MEL-28 melanoma,> 100 µM
same,TGI,SNB-78 CNS,> 100 µM
same,TGI,UACC-257 melanoma,> 100 µM
same,TGI,A549 NSCLC,> 100 µM
same,TGI,NCI-H226 lung,> 100 µM
same,TGI,OVCAR-8 ovarian,> 100 µM
same,TGI,A498 renal,> 100 µM
same,TGI,M14 melanoma,> 100 µM
same,TGI,MALME-3M melanoma,> 100 µM
same,TGI,ACHN renal,> 100 µM
same,TGI,SK-MEL-5 melanoma,> 100 µM
same,TGI,SR leukemia,> 100 µM
CN(C)C(=O)OC1C(=O)N(C)c2ccc(Cl)cc2C2(c3ccccc3)N1C2(Cl)Cl (stereo not given),TGI,UACC-62 melanoma,> 100 µM
same,TGI,NCI-H522 lung,> 100 µM
same,TGI,SNB-75 CNS,> 100 µM
same,TGI,HL-60(TB) leukemia,> 100 µM
same,TGI,SW-620 colon,> 100 µM
same,TGI,K-562 leukemia,> 100 µM
same,TGI,OVCAR-5 ovarian,> 100 µM
same,TGI,IGROV1 ovarian,> 100 µM
same,TGI,KM20L2 colon,> 100 µM
same,TGI,SK-OV-3 ovarian,> 100 µM
same,TGI,DLD-1 colon,> 100 µM
same,TGI,NCI-H460 lung,> 100 µM
same,TGI,SF-268 CNS,> 100 µM
same,TGI,HCC-2998 colon,> 100 µM
same,TGI,SK-MEL-2 melanoma,> 100 µM
same,TGI,TK-10 renal,> 100 µM
same,TGI,DMS 273 small cell lung,> 100 µM
same,TGI,OVCAR-4 ovarian,> 100 µM
same,TGI,SN12C renal,> 100 µM
same,TGI,U251 CNS,> 100 µM
same,TGI,RXF 393 renal,> 100 µM
same,TGI,M19-MEL melanoma,> 100 µM
same,TGI,HCT-116 colon,> 100 µM
same,TGI,LXFL 529 NSCLC,> 100 µM
same,TGI,OVCAR-3 ovarian,> 100 µM
same,TGI,KM12 colon,> 100 µM
same,TGI,MOLT-4 leukemia,> 100 µM
same,TGI,UO-31 renal,> 100 µM
same,TGI,CAKI-1 renal,> 100 µM
same,TGI,SF-295 CNS,> 100 µM
same,TGI,HCT-15 colon,> 100 µM
same,TGI,COLO 205 colon,> 100 µM
same,TGI,CCRF-CEM leukemia,> 100 µM
same,TGI,RPMI-8226 leukemia,> 100 µM
same,TGI,HOP-62 NSCLC,> 100 µM
same,TGI,HOP-92 NSCLC,> 100 µM
same,TGI,EKVX NSCLC,> 100 µM
same,TGI,NCI-H23 lung,> 100 µM
same,TGI,HT29 colon,> 100 µM
same,TGI,LOX IMVI melanoma,> 100 µM
same,TGI,SK-MEL-28 melanoma,> 100 µM
same,TGI,UACC-257 melanoma,> 100 µM
same,TGI,NCI-H226 lung,> 100 µM
same,TGI,OVCAR-8 ovarian,> 100 µM
same,TGI,M14 melanoma,> 100 µM
same,TGI,MALME-3M melanoma,> 100 µM
same,TGI,ACHN renal,> 100 µM
same,TGI,SK-MEL-5 melanoma,> 100 µM
same,TGI,SR leukemia,> 100 µM
Cc1cc(NC(=O)NC(=O)c2ccccc2NC(=O)C(C)N)ccc1Oc1ncc(Br)cn1 (stereo not given),TGI,UACC-62 melanoma,15.5 µM
same,TGI,NCI-H522 lung,0.334 µM
same,TGI,SNB-75 CNS,2.47 µM
same,TGI,HL-60(TB) leukemia,0.558 µM
same,TGI,SW-620 colon,44.4 µM
same,TGI,DU-145 prostate,19.2 µM
same,TGI,K-562 leukemia,> 38.5 µM
same,TGI,OVCAR-5 ovarian,25.1 µM
same,TGI,IGROV1 ovarian,29.7 µM
same,TGI,KM20L2 colon,0.459 µM
same,TGI,HS 578T breast,1.49 µM
same,TGI,SK-OV-3 ovarian,15.9 µM
same,TGI,DLD-1 colon,> 100 µM
same,TGI,NCI-H460 lung,19.2 µM
same,TGI,MDA-MB-435,0.257 µM
same,TGI,MDA-N,0.148 µM
same,TGI,PC-3 prostate,15.2 µM
same,TGI,SNB-19 CNS,56.3 µM
same,TGI,SF-268 CNS,56.3 µM
same,TGI,HCC-2998 colon,4.38 µM
same,TGI,SK-MEL-2 melanoma,6.58 µM
same,TGI,TK-10 renal,39.4 µM
same,TGI,DMS 273 small cell lung,> 32.7 µM
same,TGI,MCF7 breast,58.2 µM
same,TGI,NCI/ADR-RES ovarian,15.9 µM
same,TGI,OVCAR-4 ovarian,36.7 µM
same,TGI,SN12C renal,19.5 µM
same,TGI,U251 CNS,24.4 µM
same,TGI,RXF 393 renal,0.776 µM
same,TGI,M19-MEL melanoma,> 100 µM
same,TGI,HCT-116 colon,27.2 µM
same,TGI,LXFL 529 NSCLC,> 100 µM
same,TGI,OVCAR-3 ovarian,0.111 µM
same,TGI,KM12 colon,19.4 µM
same,TGI,MOLT-4 leukemia,52.2 µM
same,TGI,UO-31 renal,26.9 µM
same,TGI,SF-295 CNS,4.91 µM
same,TGI,SF-539 CNS,0.0431 µM
same,TGI,HCT-15 colon,39.1 µM
same,TGI,786-0 renal,9.56 µM
same,TGI,COLO 205 colon,0.852 µM
same,TGI,CCRF-CEM leukemia,17.4 µM
same,TGI,RPMI-8226 leukemia,61.5 µM
same,TGI,HOP-62 NSCLC,4.3 µM
same,TGI,HOP-92 NSCLC,25.6 µM
same,TGI,EKVX NSCLC,28.6 µM
same,TGI,NCI-H23 lung,8.56 µM
same,TGI,DMS 114 small cell lung,6.17 µM
same,TGI,HT29 colon,3.51 µM
same,TGI,LOX IMVI melanoma,33.5 µM
same,TGI,SK-MEL-28 melanoma,37.4 µM
same,TGI,SNB-78 CNS,92.6 µM
same,TGI,UACC-257 melanoma,32.6 µM
same,TGI,MDA-MB-231 breast,11.8 µM
same,TGI,A549 NSCLC,35.8 µM
same,TGI,NCI-H226 lung,2.88 µM
same,TGI,OVCAR-8 ovarian,15.3 µM
same,TGI,A498 renal,0.529 µM
same,TGI,M14 melanoma,3.71 µM
same,TGI,MALME-3M melanoma,33.4 µM
same,TGI,ACHN renal,27.4 µM
same,TGI,SK-MEL-5 melanoma,9.49 µM
same,TGI,SR leukemia,45.3 µM
same,TGI,T-47D breast,29.6 µM
same,TGI,BT-549 breast,48.9 µM
